Assays:
HepG2 cells = assay: Uptake of Fluorescent Dil-LDL in HepG2 cells in situ; type: cell-based; conditions: various concentrations (FIG. 6)
Procedure: The SBC compounds were validated for their ability to increase uptake of Fluorescent Dil-LDL in HepG2 cells.
We also tested the ability of the PCSK9 compounds to enhance the uptake of Fluorescent Dil-LDL in HepG2 cells. Briefly, HepG2 cells were plated and allowed to grow overnight. Compounds were added to the cells followed by the addition of Fluorescent Dil-LDL. Cells were washed extensively, and the Fluorescent Di-LDL taken up by the cells were measured using the Synergy 2 plate reader (FIG. 6).

mice fed high fat diet = assay: Test for efficacy in animal model (mice fed high fat diet); type: in vivo, mice (C57BL/6)
Procedure: SBC-115,076, and SBC-110,034 were tested for their efficacy in male mice (C57BL/6 mice). Mice were housed as four animals per cage under climate-controlled conditions of temperature (20-24° C.), humidity (60-70%), and alternating 12 h light/dark cycles. One group was fed commercial chow diet (Prolab RMH 3000, PMI feeds, St. Louis, Mo.) to serve as a negative control, while the other four groups were fed high fat diet (TD.06414), which provides 60% of calories from fat. Water was provided ad libitum. Plasma was collected once weekly to monitor the level of LDL. After 4 weeks of feeding a high fat-diet, mice were randomly assigned to one of several groups such that the average LDL levels were equal among different groups. […] Blood samples (75 μl) were collected twice weekly after drug administration from the retro-orbital venous plexus via heparinized capillary tubes containing 2 USP units of ammonium heparin per tube (Carolina, Burlington, N.C.). Plasma were separated immediately by centrifugation (5,000×g) for 5 min at room temperature and then kept at −80° C. until assayed for lipid profile. Plasma cholesterol, LDL-C, HDL-C, and triglyceride levels are measured enzymatically. Additionally, the plasma levels of PCSK9 and chemokines/cytokines were measured for potential pleiotropic effects of PCSK9 inhibitors using ELISA and multiplex assays.

PCSK9 = biological target: T1, PCSK9 (Homo sapiens, UniProt Q8NBP7); conditions: single injection, clinical trial; cited from earlier work
T1 construct: host or cells: patients (endogenous circulating PCSK9)

[1] = 8 mg/kg daily s.c., after two weeks, P<0.01 (FIG. 8)
[2] = second study, 40 mg/kg, after three weeks, P<0.01

T1 sequence (Q8NBP7 153-692): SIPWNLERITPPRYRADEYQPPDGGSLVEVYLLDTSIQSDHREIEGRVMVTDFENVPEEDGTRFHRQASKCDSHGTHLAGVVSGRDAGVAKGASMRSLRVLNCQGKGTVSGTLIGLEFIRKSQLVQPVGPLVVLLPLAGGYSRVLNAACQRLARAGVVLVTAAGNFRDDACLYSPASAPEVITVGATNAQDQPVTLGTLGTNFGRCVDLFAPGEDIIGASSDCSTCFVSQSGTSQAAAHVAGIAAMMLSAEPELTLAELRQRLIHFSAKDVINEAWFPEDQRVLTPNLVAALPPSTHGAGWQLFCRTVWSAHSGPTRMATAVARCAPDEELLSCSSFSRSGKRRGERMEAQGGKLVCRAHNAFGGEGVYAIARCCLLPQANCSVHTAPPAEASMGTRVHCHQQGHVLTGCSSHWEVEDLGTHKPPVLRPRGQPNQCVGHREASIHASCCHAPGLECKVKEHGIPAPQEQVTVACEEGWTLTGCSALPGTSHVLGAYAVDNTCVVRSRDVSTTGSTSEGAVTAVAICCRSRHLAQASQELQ

## Cc1cc(C(=O)C2=C(O)C(=O)N(CCCN3CCOCC3)C2c2ccncc2)ccc1OCc1ccccc1 (stereo not shown) [SBC-115,076]
HepG2 cells
  uptake of Fluorescent Dil-LDL: increase in the Fluorescent Dil-LDL uptake using submicromolar concentrations
Mice fed high fat diet; [1]
  mean reduction in total cholesterol levels relative to high fat diet animal levels: 32%
  mean reduction toward return to regular diet cholesterol levels: 50%
Mice fed high fat diet; 8 mg/kg daily subcutaneously for two weeks
  cholesterol levels in mice fed high fat diet: lowered cholesterol levels

## CC(C)c1c(C(=O)Nc2ccccc2)c(-c2ccccc2)c(-c2ccc(F)cc2)n1CC[C@@H](O)C[C@@H](O)CC(=O)O [Atorvastatin, reference compound]
Mice fed high fat diet; [2]
  mean reduction in total cholesterol levels relative to high fat diet animal levels: 27%
  mean reduction toward return to regular diet cholesterol levels: 44%

## REGN727: Regeneron/Sanofi fully-human PCSK9 monoclonal antibody
PCSK9
  reduction of LDL levels: more than 60%

Source: patent US9682085B2, “Anti-proprotein convertase subtilisin kexin type 9 (anti-PCSK9) compounds and methods of using the same in the treatment and/or prevention of cardiovascular diseases” (Shifa Biomedical Corporation, priority 2013, dated 2017)
